Reference: US12569482B2, “Methods and compositions for treating idiopathic pulmonary fibrosis” (priority 2018, dated 2026)

Test system: bleomycin-induced pulmonary fibrosis
Assay: Bleomycin mouse model of pulmonary fibrosis, Example 3 (itraconazole inhalation, oral nintedanib)
Type: in vivo, ICR mice
Settings: oral 60 mg/kg
Protocol: Iodine was used to disinfect the neck hair and skin. Later, the neck skin was cut to expose the trachea. 50 μL of PBS or bleomycin hydrochloride (Hisun Pfizer pharmaceutical Co., LTD, 17001711) in 0.9% sodium chloride solution ([…], i.e., […]) was quickly sprayed as mist into the trachea of mice from the Control Group or the other group with a high pressure syringe connected to a spraying nozzle. At the end, the skin was sutured and disinfected, and the mice were returned to the cages for recovery. On Day 5, the mice treated with bleomycin were divided into six groups at random (referred to as Group 2-7). […] For itraconazole inhalation, each mouse was placed in a 16×13×9 (length×width×height in cm) cabinet. Itraconazole preparation of 5, 15 or 50 mg/mL was sprayed into the cabinet with a compressed nebulizer. [table] Twenty-four hours after the last drug administration, the mice were sacrificed by dislocation of cervical vertebra. The trachea was isolated and intubated. The upper lobe of the left lung was ligated. […] The total number of leukocytes in the BALF was counted. The BALF was centrifuged at 2000 rpm/min for 10 min at 4° C. The supernatant was collected and stored at -80° C. for cytokine measurement, and the deposit was smeared on glass slides. After air drying at room temperature, the slides were subjected to Wright's-Giemsa staining. The number of neutrophils, lymphocytes and macrophages were counted under a microscope from a total of 200 cells for each slide. The upper left lung tissues were used for measuring the level of hydroxyproline, and the lower part was fixed in formalin for H&E staining and Masson's staining. The level of hydroxyproline in the lung tissues was measured using a Hydroxyproline Assay kit (Nanjing JianCheng Bioengineering Institute). The level of TGF-β1 in 100 μL BALF was determined using a mouse TGF-β1 ELISA kit (Beijing 4A Biotech Co., LTD), and the level of type I collagen (Col I) in 100 μL BALF was determined using a mouse Collagen Type I ELISA kit (CUSABIO BIOTEH). […] Then, the lung tissues were sectioned into 4 μm-thick sections for H&E staining and Masson's staining. H&E staining was used to observe the alveolar hyperemia, the infiltration or aggregation of neutrophils in the alveolar space or the vascular wall, and the thickening of alveolar septum or the formation of hyaline membranes. The degree of fibrosis in the lesions with H&E staining was observed under microscope and scored using a semi-quantitative Ashcroft scoring criteria below. Grade 0: Normal tracheal bronchoalveolar structures; Grade 1: Minimal fibrous thickening of alveolar or bronchiolar walls; Grade 3: Moderate thickening of walls without obvious damage to lung architecture; Grade 5: Increased fibrosis with definite damage to lung structure and formation of fibrous bands or small fibrous masses; Grade 7: Severe distortion of structure and large fibrous areas, with honeycomb lung placed in this category; Grade 8: Total fibrous obliteration. The severity of fibrosis between two odd numbers was considered as the corresponding even number. On the other hand, IOD value of positive Masson's staining site was measured by Image pro software for analysis. The data were tested for the homogeneity of variance. If the variance was homogenous (p>0.05), a single factor variance analysis was performed. The Dunnet test was performed for the differences between each dose group and the control group. If the variance was heterogenous (p 0.05), a non-parametric test was conducted, followed by the […] test for examining the differences between each dose group and the control group. The difference was considered significant when p<0.05.

## COC(=O)c1ccc2c(c1)NC(=O)/C2=C(\Nc1ccc(N(C)C(=O)CN2CCN(C)CC2)cc1)c1ccccc1 [nintedanib]
  level of Col I in the BALF: did not reduce
  number of lymphocytes and macrophages in the BALF: had no effects
  pathological changes of lung tissues (H&E staining): significantly reduced the infiltration of neutrophils and macrophages and the thickening of alveolar septum
p<0.001
  collagen deposition in the lung tissues (Masson's staining IOD): significantly reduced the collagen deposition
  level of TGF-β1 in the BALF: significantly reduced
p<0.01
  level of hydroxyproline in the lung tissues: significantly reduced
  neutrophils in the BALF: significantly reduced
  semi-quantitative Ashcroft Score: significantly reduced the pulmonary fibrosis
  total number of leukocytes in the BALF: significantly reduced
